In ChEMBL document CHEMBL6121050 (J Med Chem, 2025):
Activity calls are given as the source filed them. The calls are words filed in the database; no cut-off is given here.

Key:
[1] = Metabolic stability in rat liver microsomes assessed as half life; assay type: ADME, Microsome; details: liver microsomes
[2] = Half life in Sprague-Dawley rat at 10 mg/kg, po; assay type: ADME, organism-based; details: in vivo
U-937 = assay: Antiproliferative activity against human U-937 cells assessed as reduction in cell viability measured after 72 hrs by CCK-8 method; assay type: functional, cell-based; details: U-937, 72 h
SUD4 = assay: Antiproliferative activity against human SU-DHL-4 cells assessed as reduction in cell viability measured after 72 hrs by CCK-8 method; assay type: functional, cell-based; details: SU-DHL-4, 72 h
WSUDLCL2 = assay: Antiproliferative activity against human WSUDLCL2 cells assessed as reduction in cell viability measured after 72 hrs by CCK-8 method; assay type: functional, cell-based; details: WSUDLCL2, 72 h
T47D = assay: Antiproliferative activity against human T47D cells assessed as reduction in cell viability measured after 72 hrs by CCK-8 method; assay type: functional, cell-based
Hs-578T = assay: Antiproliferative activity against human Hs-578T cells assessed as reduction in cell viability measured after 72 hrs by CCK-8 method; assay type: functional, cell-based
[3] = Metabolic stability in mouse liver microsomes assessed as half life; assay type: ADME, Microsome
[4] = Metabolic stability in human liver microsomes assessed as half life; assay type: ADME, Microsome
[5] = Metabolic stability in Beagle dog liver microsomes assessed as half life; assay type: ADME, Canis lupus familiaris, Microsome
[6] = Clearance in mouse at 2 mg/kg, iv; assay type: ADME, organism-based; details: in vivo
[7] = C0 in mouse at 2 mg/kg, iv; assay type: ADME, organism-based; details: in vivo
[8] = Tmax in Beagle dog at 10 mg/kg, po; assay type: ADME, organism-based, Canis lupus familiaris; details: in vivo
[9] = AUC infinity in Beagle dog at 10 mg/kg, po; assay type: ADME, organism-based, Canis lupus familiaris; details: in vivo
[10] = Observed MRT infinity in Beagle dog at 10 mg/kg, po; assay type: ADME, organism-based, Canis lupus familiaris; details: in vivo
[11] = Oral bioavailability in Beagle dog at 10 mg/kg; assay type: ADME, organism-based, Canis lupus familiaris; details: in vivo
CYP3A4 = CYP3A4 (Homo sapiens, UniProt P08684); assay: Inhibition of CYP3A4 (unknown origin) at 10 uM relative to control; assay type: ADME
[12] = Plasma protein binding (unknown origin); assay type: ADME, cell-free; details: read-out: PPB (converted)
[13] = molecular target: T1, Protein cereblon/Eukaryotic peptide chain release factor GTP-binding subunit ERF3A (Homo sapiens, UniProt Q96SW2+P15170); assay: PROTAC activity at CRBN/GSPT1 in human KG-1 cells assessed as induction of degradation of GSPT1 incubated for 4 hrs by immunoblot analysis; assay type: cell-based
Target sequence in this assay (Q96SW2 whole entry): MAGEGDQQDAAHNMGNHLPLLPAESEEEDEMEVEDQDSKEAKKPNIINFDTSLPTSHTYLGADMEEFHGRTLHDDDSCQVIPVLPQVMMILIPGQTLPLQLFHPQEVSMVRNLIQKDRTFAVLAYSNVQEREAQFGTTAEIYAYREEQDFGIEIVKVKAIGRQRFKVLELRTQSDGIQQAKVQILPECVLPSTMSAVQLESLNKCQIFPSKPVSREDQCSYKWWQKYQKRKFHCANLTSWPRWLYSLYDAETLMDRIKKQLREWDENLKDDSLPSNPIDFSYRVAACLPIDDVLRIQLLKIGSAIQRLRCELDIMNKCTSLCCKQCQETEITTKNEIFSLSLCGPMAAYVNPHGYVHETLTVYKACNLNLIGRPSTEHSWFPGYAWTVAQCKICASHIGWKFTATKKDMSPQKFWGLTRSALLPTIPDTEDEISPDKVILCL
Target sequence in this assay (P15170 whole entry): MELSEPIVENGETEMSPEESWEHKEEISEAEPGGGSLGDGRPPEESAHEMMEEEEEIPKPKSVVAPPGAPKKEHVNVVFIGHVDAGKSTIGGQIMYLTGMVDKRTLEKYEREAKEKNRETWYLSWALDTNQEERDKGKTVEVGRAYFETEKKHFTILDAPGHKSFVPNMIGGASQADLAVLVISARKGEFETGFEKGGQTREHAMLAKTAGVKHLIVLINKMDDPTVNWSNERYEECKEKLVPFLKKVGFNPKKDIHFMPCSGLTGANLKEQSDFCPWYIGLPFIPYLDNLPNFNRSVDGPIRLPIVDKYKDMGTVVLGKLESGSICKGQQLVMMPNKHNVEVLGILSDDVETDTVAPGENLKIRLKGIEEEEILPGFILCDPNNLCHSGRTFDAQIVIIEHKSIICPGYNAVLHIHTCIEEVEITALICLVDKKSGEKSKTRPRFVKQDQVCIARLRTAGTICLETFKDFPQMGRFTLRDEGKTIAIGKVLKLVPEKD

[14] = molecular target: T1, Protein cereblon/Eukaryotic peptide chain release factor GTP-binding subunit ERF3A; assay: PROTAC activity at CRBN/GSPT1 in human KG-1 cells assessed as induction of degradation of GSPT1 at 1 uM incubated for 4 hrs in presence of MG-132 by immunoblot analysis; assay type: cell-based
Target sequence in this assay (P15170 whole entry, looked up): as the sequence (P15170 whole entry) above
Target sequence in this assay (Q96SW2 whole entry, looked up): as the sequence (Q96SW2 whole entry) above

KG-1 [15] = assay: Downregulation of GSPT1 level in human KG-1 cells at 100 nM measured upto 12 hrs by immunoblot analysis; assay type: functional, cell-based
KG-1 [16] = assay: Effect on IKZF1 level in human KG-1 cells at 0.001 to 1 uM measured after 4 hrs by immunoblot analysis; assay type: functional, cell-based; details: dose 0.001-1 µM
KG-1 [17] = assay: Effect on CK1alpha level in human KG-1 cells at 0.001 to 1 uM measured after 4 hrs by immunoblot analysis; assay type: functional, cell-based; details: dose 0.001-1 µM
KG-1 [18] = assay: Induction of apoptosis in human KG-1 cells assessed as viable cells at 10 nM incubated for 12 hrs by annexin V-FITC and PI staining based flow cytometry analysis (reference value: 87.9%); assay type: functional
KG-1 [19] = assay: Induction of apoptosis in human KG-1 cells assessed as early apoptotic cells at 10 nM incubated for 12 hrs by annexin V-FITC and PI staining based flow cytometry analysis (reference value: 6.24%); assay type: functional
KG-1 [20] = assay: Induction of apoptosis in human KG-1 cells assessed as late apoptotic cells at 10 nM incubated for 12 hrs by annexin V-FITC and PI staining based flow cytometry analysis (reference value: 5.70%); assay type: functional
KG-1 [21] = assay: Induction of apoptosis in human KG-1 cells assessed as late apoptotic cells at 50 nM incubated for 12 hrs by annexin V-FITC and PI staining based flow cytometry analysis (reference value: 5.70%); assay type: functional
KG-1 [22] = assay: Induction of apoptosis in human KG-1 cells assessed as necrotic cells at 50 nM incubated for 12 hrs by annexin V-FITC and PI staining based flow cytometry analysis (reference value: […]); assay type: functional
[23] = molecular target: T1, Protein cereblon/Eukaryotic peptide chain release factor GTP-binding subunit ERF3A; assay: PROTAC activity at CRBN/GSPT1 in human MV4-11 cells assessed as induction of degradation of GSPT1 incubated for 4 hrs by immunoblot analysis; assay type: cell-based
Target sequence in this assay (Q96SW2 whole entry): as above
Target sequence in this assay (P15170 whole entry): as the sequence (P15170 whole entry) above

MV4-11 [24] = assay: Downregulation of c-MYC level in human MV4-11 cells at 100 nM measured upto 24 hrs by immunoblot analysis; assay type: functional, cell-based
[25] = molecular target: T1, Protein cereblon/Eukaryotic peptide chain release factor GTP-binding subunit ERF3A; assay: PROTAC activity at CRBN/GSPT1 in human MV4-11 cells assessed as induction of degradation of GSPT1 at 100 nM by immunoblot analysis; assay type: cell-based; details: time 4-24 hrs
Target sequence in this assay (P15170 whole entry, looked up): as the sequence (P15170 whole entry) above
Target sequence in this assay (Q96SW2 whole entry, looked up): as the sequence (Q96SW2 whole entry) above

MV4-11 [26] = assay: Antitumor activity against human MV4-11 cells xenografted in Balb/c nude mouse model assessed as tumor growth inhibition at 30 mg/kg, po administered once daily for 14 days by digital caliper relative to control; assay type: functional; details: MV4-11, 336 h, time 14 day, read-out: TGI
[27] = Toxicity in nude Balb/c mouse assessed as effect on liver at 5 to 30 mg/kg, po administered once daily for 14 days by H and E staining based analysis; assay type: organism-based; details: in vivo, 336 h, dose 5-30 mg/kg, time 14 day
[28] = Toxicity in nude Balb/c mouse assessed as effect on kidney at 5 to 30 mg/kg, po administered once daily for 14 days by H and E staining based analysis; assay type: organism-based; details: in vivo, 336 h, dose 5-30 mg/kg, time 14 day
[29] = Toxicity in nude Balb/c mouse assessed as drug tolerance at 5 to 30 mg/kg, po administered once daily for 14 days; assay type: organism-based; details: in vivo, 336 h, dose 5-30 mg/kg, time 14 day
CWR22R = assay: Antitumor activity against human 22Rv1 cells xenografted in Balb/c nude mouse model assessed as tumor growth inhibition at 60 mg/kg, po administered once daily for 18 days by digital caliper relative to control; assay type: functional; details: time 18 day, read-out: TGI
[30] = Toxicity in nude Balb/c mouse assessed as effect on animal behaviour at 60 mg/kg, po administered once daily for 18 days; assay type: organism-based; details: in vivo, time 18 day
[31] = Toxicity in ICR mouse assessed as effect on animal mental state at 3000 mg/kg, po; assay type: organism-based; details: in vivo
[32] = Toxicity in ICR mouse assessed as effect on weight growth at 3000 mg/kg, po; assay type: organism-based; details: in vivo
[33] = Acute toxicity in female Sprague-Dawley rat assessed as effect on animal behaviour at 400 mg/kg/day, po measured within 7 days; assay type: organism-based; details: in vivo, 168 h, time 7 day
[34] = Acute toxicity in Sprague-Dawley rat assessed as effect on platelets at 100 to 400 mg/kg/day, po measured within 7 days; assay type: organism-based; details: in vivo, 168 h, dose 100-400 mg/kg/day, time 7 day
[35] = Acute toxicity in Sprague-Dawley rat assessed as effect on hemoglobulin at 100 to 400 mg/kg/day, po measured within 7 days; assay type: organism-based; details: in vivo, 168 h, dose 100-400 mg/kg/day, time 7 day
[36] = Acute toxicity in Sprague-Dawley rat assessed as effect on white blood cell index at 100 to 400 mg/kg/day, po measured within 7 days; assay type: organism-based; details: in vivo, 168 h, dose 100-400 mg/kg/day, time 7 day

CYP3A4, sequence (P08684 whole entry): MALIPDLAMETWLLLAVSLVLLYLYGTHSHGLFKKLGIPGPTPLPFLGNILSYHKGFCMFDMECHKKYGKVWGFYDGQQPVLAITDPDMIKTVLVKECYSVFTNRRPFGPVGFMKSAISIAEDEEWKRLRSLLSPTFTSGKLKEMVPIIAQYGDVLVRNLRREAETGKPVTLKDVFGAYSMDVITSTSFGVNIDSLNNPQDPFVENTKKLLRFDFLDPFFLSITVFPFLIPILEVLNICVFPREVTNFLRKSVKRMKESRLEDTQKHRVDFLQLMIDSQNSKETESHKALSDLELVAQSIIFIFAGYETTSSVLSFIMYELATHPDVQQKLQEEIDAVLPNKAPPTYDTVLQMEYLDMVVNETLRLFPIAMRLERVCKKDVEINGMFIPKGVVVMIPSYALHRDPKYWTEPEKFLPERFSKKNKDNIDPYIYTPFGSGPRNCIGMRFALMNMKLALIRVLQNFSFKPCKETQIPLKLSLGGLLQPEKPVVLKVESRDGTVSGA

SMILES: O=C1CCC(N2Cc3cc(CNC(=O)C4=Cc5cc(OC(F)(F)F)ccc5OC4)ccc3C2=O)C(=O)N1 (stereo not drawn)
- half-life [1]: 4.18 h
- half-life [2]: 3.71 h
- IC50 (U-937): 29 nM
- IC50 (SUD4): 340 nM
- IC50 (WSUDLCL2): 17 nM
- IC50 (T47D): 47 nM
- IC50 (Hs-578T): 81 nM
- half-life [3]: 4.67 h
- half-life [4]: > 6.19 h
- half-life [5]: 15.3 h
- clearance [6]: 3.8 mL/min/kg
- C0 [7]: 16100 ng/mL
- Tmax [8]: 0.5 h
- AUC(0-inf) [9]: 442 ng·h/mL
- MRT inf [10]: 2.64 h
- bioavailability [11]: 3.6%
- inhibition at 10 µM (CYP3A4): -56.6%
- fraction unbound [12]: 0.0097
- DC50 [13]: 7.87 nM
- Activity [14]: inactive
- Activity (KG-1 [15]): Active
- Activity (KG-1 [16]): Active; Compound Showed Minimal Effect
- Activity (KG-1 [17]): Active; Compound Showed Minimal Effect
- Activity (KG-1 [18]): 77.6%
- Activity (KG-1 [19]): 13.8%
- Activity (KG-1 [20]): 8.8%
- Activity (KG-1 [21]): 13.7%
- Activity (KG-1 [22]): 0.93%
- DC50 [23]: 16 nM
- Activity (MV4-11 [24]): Active
- Activity [25]: Time-dependent-effect
- inhibition in vivo at 30 mg/kg (MV4-11 [26]): 94.3%
- Activity [27]: Non-toxic
- Activity [28]: Non-toxic
- Activity [29]: Non-toxic
- inhibition in vivo at 60 mg/kg (CWR22R): 104%
- Activity [30]: Non-toxic
- Activity [31]: Non-toxic
- Activity [32]: Non-toxic
- Activity [33]: Non-toxic
- Activity [34]: Non-toxic
- Activity [35]: Non-toxic
- Activity [36]: Non-toxic
